Results as given in ChEMBL document CHEMBL3108667, “Potent and selective inhibitors of CDPK1 from T. gondii and C. parvum based on a 5-aminopyrazole-4-carboxamide scaffold” (ACS Med Chem Lett, 2014).

Tests used:
cells = conditions: Homo sapiens, CRL8155
in vivo [1] = conditions: mouse, plasma, po, 10 mg/kg
in vivo [2] = conditions: mouse, po, 10 mg/kg
[3] = target: T1, Calmodulin-domain protein kinase 1 (Toxoplasma gondii, UniProt Q9BJF5)
T1 sequence (Q9BJF5 whole entry): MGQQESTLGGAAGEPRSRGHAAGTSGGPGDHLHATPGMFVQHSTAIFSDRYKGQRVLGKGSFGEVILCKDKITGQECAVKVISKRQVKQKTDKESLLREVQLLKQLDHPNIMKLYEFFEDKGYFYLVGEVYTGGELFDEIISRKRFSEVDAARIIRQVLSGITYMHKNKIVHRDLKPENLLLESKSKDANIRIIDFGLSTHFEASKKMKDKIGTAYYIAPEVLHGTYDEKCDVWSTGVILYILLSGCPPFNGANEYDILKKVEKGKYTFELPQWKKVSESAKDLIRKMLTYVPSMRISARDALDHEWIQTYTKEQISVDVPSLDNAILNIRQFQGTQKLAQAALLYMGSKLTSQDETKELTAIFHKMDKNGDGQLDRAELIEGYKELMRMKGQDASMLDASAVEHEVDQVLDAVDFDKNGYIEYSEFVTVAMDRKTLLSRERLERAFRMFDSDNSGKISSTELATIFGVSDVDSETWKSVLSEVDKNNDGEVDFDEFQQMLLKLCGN

SMILES	EC50 (cells) [µM]	further results
NC(=O)c1c(-c2ccc3ccccc3c2)nn(CC(F)(F)F)c1N	> 30	
CC(C)(C)Cn1nc(-c2ccc3ccccc3c2)c(C(N)=O)c1N	> 40	
CCOc1ccc2cc(-c3nn(C(C)(C)C)c(N)c3C(N)=O)ccc2c1	> 30	
CC(C)(C)n1nc(-c2ccc3c(N)n[nH]c3c2)c(C(N)=O)c1N		IC50 [3]: 0.04 µM

More lines, main results first:

EC50 (cells) [µM]	SMILES	further results
> 40	COc1ccc2cc(-c3nn(C(C)(C)C)c(N)c3C(N)=O)ccc2c1	
> 30	CCOc1ccc2cc(-c3nn(C(C)(C)C)c(N)c3C(N)=O)cnc2c1	AUC (in vivo [1]): 41.7 µM·h; Cmax at 1 h (in vivo [2]): 10 µM
> 40	CC(C)(C)n1nc(-c2cnc3ccccc3c2)c(C(N)=O)c1N	
